Measured values from ChEMBL document CHEMBL5113503, “Synthesis and biological evaluation of 4-(4-aminophenyl)-6-methylisoxazolo[3,4-b] pyridin-3-amine covalent inhibitors as potential agents for the treatment of acute myeloid leukemia” (Bioorg Med Chem, 2022).

Tests used:
[1] = biological target: T1, Receptor-type tyrosine-protein kinase FLT3 (Homo sapiens, UniProt P36888); assay: Inhibition of FLT3 (unknown origin) preincubated with compound for 10 mins followed by substrate addition and measured after 1 hrs by ADP-Glo kinase assay
T1 sequence (P36888 whole entry): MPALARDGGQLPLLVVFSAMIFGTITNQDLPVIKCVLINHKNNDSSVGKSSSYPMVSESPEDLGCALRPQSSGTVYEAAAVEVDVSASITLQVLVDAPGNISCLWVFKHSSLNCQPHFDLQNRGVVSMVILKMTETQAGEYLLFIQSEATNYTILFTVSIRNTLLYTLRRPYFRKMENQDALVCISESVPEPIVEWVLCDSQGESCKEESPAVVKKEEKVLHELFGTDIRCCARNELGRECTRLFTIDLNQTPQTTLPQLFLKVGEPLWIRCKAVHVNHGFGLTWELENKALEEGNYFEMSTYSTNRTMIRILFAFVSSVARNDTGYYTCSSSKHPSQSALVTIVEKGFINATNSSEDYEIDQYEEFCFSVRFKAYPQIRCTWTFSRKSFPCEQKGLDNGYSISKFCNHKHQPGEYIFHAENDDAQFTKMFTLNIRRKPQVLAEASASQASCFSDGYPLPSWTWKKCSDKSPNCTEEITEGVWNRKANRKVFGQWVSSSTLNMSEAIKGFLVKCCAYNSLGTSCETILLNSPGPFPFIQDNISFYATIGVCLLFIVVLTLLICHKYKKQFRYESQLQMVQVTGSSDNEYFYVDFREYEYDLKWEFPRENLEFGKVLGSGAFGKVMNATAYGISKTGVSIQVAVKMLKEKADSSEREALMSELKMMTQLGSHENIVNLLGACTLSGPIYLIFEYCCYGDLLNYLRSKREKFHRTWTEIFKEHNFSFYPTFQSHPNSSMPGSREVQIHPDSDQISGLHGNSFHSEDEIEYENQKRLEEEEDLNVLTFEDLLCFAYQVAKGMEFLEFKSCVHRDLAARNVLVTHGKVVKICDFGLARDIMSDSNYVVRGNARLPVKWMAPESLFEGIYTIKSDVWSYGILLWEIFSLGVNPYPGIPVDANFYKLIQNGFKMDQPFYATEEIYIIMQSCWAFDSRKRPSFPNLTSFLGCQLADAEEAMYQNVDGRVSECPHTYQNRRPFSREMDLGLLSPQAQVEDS

HL-60 = assay: Antiproliferative activity against human HL-60 cells harboring wildtype FLT3 assessed as cell growth inhibition measured after 72 hrs by CCK8 assay; details: HL-60, 72 h
HepG2 = assay: Antiproliferative activity human HepG2 cells assessed as cell growth inhibition measured after 72 hrs by CCK8 assay; details: HepG2, 72 h
A549 = assay: Antiproliferative activity human A549 cells assessed as cell growth inhibition measured after 72 hrs by CCK8 assay; details: A549, 72 h
[2] = Cytotoxicity against human K562 cells assessed as cell growth inhibition measured after 72 hrs by CCK8 assay; type: toxicity, cell-based
MV4-11 [3] = assay: Induction of cell cycle arrest in human MV4-11 cells assessed as accumulation at G0/G1 phase at 0.1 uM measured after 24 hrs by flow cytometry (reference value: 64.29 %); type: functional
MV4-11 [4] = assay: Induction of cell cycle arrest in human MV4-11 cells assessed as accumulation at G0/G1 phase at 0.5 uM measured after 24 hrs by flow cytometry (reference value: 64.29 %); type: functional
MV4-11 [5] = assay: Induction of cell cycle arrest in human MV4-11 cells assessed as accumulation at G0/G1 phase at 2.5 uM measured after 24 hrs by flow cytometry (reference value: 64.29 %); type: functional
MV4-11 [6] = assay: Induction of apoptosis in human MV4-11 cells assessed as viable cells at 2.5 uM measured after 48 hrs by Annexin V-FITC/PI double staining based flow cytometric analysis (reference value: 80.26 %); type: functional; details: read-out: Activity
MV4-11 [7] = assay: Induction of apoptosis in human MV4-11 cells assessed as early apoptotic cells at 2.5 uM measured after 48 hrs by Annexin V-FITC/PI double staining based flow cytometric analysis (reference value: 2.04 %); type: functional
MV4-11 [8] = assay: Induction of apoptosis in human MV4-11 cells assessed as late apoptotic cells at 2.5 uM measured after 48 hrs by Annexin V-FITC/PI double staining based flow cytometric analysis (reference value: 12.03 %); type: functional
MV4-11 [9] = assay: Induction of apoptosis in human MV4-11 cells assessed as viable cells at 0.5 uM measured after 48 hrs by Annexin V-FITC/PI double staining based flow cytometric analysis (reference value: 80.26 %); type: functional; details: read-out: Activity
MV4-11 [10] = assay: Induction of apoptosis in human MV4-11 cells assessed as early apoptotic cells at 0.5 uM measured after 48 hrs by Annexin V-FITC/PI double staining based flow cytometric analysis (reference value: 2.04 %); type: functional
MV4-11 [11] = assay: Induction of apoptosis in human MV4-11 cells assessed as late apoptotic cells at 0.5 uM measured after 48 hrs by Annexin V-FITC/PI double staining based flow cytometric analysis (reference value: 12.03 %); type: functional
MV4-11 [12] = assay: Induction of apoptosis in human MV4-11 cells assessed as necrotic cells at 0.5 uM measured after 48 hrs by Annexin V-FITC/PI double staining based flow cytometric analysis (reference value: 5.67 %); type: functional
MV4-11 [13] = assay: Induction of apoptosis in human MV4-11 cells assessed as early apoptotic cells at 0.1 uM measured after 48 hrs by Annexin V-FITC/PI double staining based flow cytometric analysis (reference value: 2.04 %); type: functional
MV4-11 [14] = assay: Induction of apoptosis in human MV4-11 cells assessed as late apoptotic cells at 0.1 uM measured after 48 hrs by Annexin V-FITC/PI double staining based flow cytometric analysis (reference value: 12.03 %); type: functional
MV4-11 [15] = assay: Induction of apoptosis in human MV4-11 cells assessed as necrotic cells at 0.1 uM measured after 48 hrs by Annexin V-FITC/PI double staining based flow cytometric analysis (reference value: 5.67 %); type: functional
[16] = biological target: Receptor-type tyrosine-protein kinase FLT3 (Homo sapiens) (UniProt P36888); assay: Inhibition of FLT3 phosphorylation in human MV4-11 cells incubated for 12 hrs by Western blot analysis; type: cell-based; details: dose 0.1-2.5 µM, DDE = dose-dependent effect
[17] = biological target: Serine/threonine-protein kinase AKT (Homo sapiens) (UniProt P31751+Q9Y243+P31749); assay: Inhibition of AKT phosphorylation in human MV4-11 cells incubated for 12 hrs by Western blot analysis; type: cell-based; details: dose 0.1-2.5 µM, DDE = dose-dependent effect
Sequence of Serine/threonine-protein kinase AKT (Homo sapiens) (P31749 whole entry, looked up): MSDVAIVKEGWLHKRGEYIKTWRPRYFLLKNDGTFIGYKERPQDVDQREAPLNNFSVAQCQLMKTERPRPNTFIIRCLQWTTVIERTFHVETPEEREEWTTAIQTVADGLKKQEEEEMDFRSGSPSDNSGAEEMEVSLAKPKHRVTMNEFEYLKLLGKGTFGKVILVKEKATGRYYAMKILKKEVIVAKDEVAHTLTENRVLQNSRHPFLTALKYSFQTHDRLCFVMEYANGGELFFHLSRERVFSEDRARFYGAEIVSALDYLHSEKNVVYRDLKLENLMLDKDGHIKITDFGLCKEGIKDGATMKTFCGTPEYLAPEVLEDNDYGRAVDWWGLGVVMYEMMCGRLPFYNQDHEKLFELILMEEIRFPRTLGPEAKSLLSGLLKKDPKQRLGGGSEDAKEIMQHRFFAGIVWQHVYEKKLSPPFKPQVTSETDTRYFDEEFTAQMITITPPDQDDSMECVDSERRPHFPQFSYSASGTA
Sequence of Serine/threonine-protein kinase AKT (Homo sapiens) (P31751 whole entry, looked up): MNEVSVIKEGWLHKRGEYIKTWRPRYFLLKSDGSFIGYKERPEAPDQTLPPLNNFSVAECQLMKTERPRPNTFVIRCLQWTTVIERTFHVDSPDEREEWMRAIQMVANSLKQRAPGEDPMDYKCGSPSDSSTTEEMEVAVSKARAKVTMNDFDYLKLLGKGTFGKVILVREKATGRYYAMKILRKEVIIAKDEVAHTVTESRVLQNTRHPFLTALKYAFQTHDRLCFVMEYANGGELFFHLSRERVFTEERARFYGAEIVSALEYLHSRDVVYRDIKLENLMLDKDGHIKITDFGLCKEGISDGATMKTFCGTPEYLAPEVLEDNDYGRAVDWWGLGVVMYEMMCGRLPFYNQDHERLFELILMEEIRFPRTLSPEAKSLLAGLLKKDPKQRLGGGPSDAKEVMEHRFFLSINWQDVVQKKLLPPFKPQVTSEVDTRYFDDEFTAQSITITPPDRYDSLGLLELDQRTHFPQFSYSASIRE
Sequence of Serine/threonine-protein kinase AKT (Homo sapiens) (Q9Y243 whole entry, looked up): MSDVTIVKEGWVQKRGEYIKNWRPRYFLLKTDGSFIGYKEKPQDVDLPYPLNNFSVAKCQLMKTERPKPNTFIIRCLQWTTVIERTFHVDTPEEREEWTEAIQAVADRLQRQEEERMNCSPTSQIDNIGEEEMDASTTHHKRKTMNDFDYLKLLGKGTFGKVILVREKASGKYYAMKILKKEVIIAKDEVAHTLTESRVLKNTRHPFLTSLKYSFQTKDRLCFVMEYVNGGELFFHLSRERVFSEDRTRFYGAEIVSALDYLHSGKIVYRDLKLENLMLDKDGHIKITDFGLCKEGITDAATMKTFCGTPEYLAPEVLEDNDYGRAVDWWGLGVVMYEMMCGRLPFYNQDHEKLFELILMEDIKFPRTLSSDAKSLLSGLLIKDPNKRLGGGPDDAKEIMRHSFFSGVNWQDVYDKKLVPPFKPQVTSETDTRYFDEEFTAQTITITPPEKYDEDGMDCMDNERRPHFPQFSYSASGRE

MV4-11 [18] = assay: Inhibition of ERK phosphorylation in human MV4-11 cells incubated for 12 hrs by Western blot analysis; type: cell-based; details: dose 0.1-2.5 µM, DDE = dose-dependent effect

- IC50 [1]: 0.256 µM
- IC50 (HL-60): > 10 µM
- IC50 (HepG2): > 10 µM
- IC50 (A549): > 10 µM
- inhibition [16]: Dde
- inhibition [17]: Dde
SMILES: C=CC(=O)Nc1ccc(NC(=O)Nc2ccc(-c3cc(C)nc4noc(N)c34)cc2)cc1
- IC50 at 72 h [2]: > 10 µM
- Activity (MV4-11 [3]): 67.6%
- Activity (MV4-11 [4]): 71.37%
- Activity (MV4-11 [5]): 83%
- viability at 2.5 µM (MV4-11 [6]): 53.9%
- Activity (MV4-11 [7]): 1.5%
- Activity (MV4-11 [8]): 35.01%
- viability at 0.5 µM (MV4-11 [9]): 77.5%
- Activity (MV4-11 [10]): 2.43%
- Activity (MV4-11 [11]): 14.58%
- Activity (MV4-11 [12]): 5.47%
- Activity (MV4-11 [13]): 1.83%
- Activity (MV4-11 [14]): 11.88%
- Activity (MV4-11 [15]): 4.51%
- inhibition (MV4-11 [18]): Dde
